# Reference: PMC3388044, “Probing of Exosites Leads to Novel Inhibitor Scaffolds of HCV NS3/4A Proteinase” (PLoS ONE, 2012)
# Molecular target: T1, HCV NS3/4A (wild-type) (Hepatitis C virus genotype 1b, UniProt O92972)
# T1 construct: The NS3/4A construct represented the individual NS3 proteinase domain N-terminally fused with an NS4A co-factor; 6xHis; purchased AnaSpec (Fremont, CA)
# Experiment: NS3/4A activity assay with FRET peptide substrate, wild-type enzyme
# Format: biochemical, HCV genotype 1b, strain HC-J4
# Details: wild-type NS3/4A 10 nM, Ac-DE-D(Edans)-EE-Abu-ψ-[COO]-AS-K(Dabsyl)-NH2 10 µM, 30 min pre-incubation; read-out: NS3/4A IC50
# Text: (§1) Reagents were purchased from Sigma unless indicated otherwise. The FRET substrate Ac-DE-D(Edans)-EE-Abu-ψ-[COO]-AS-K(Dabsyl)-NH2, purified recombinant wild-type NS3/4A from HCV genotype 1b, strain HC-J4, and the mutants with the V36M, R155K, A156T, D168A and V170A resistance mutations were from AnaSpec (Fremont, CA). The NS3/4A construct represented the individual NS3 proteinase domain N-terminally fused with an NS4A co-factor and tagged with a 6xHis tag. NS3/4A was in active form and the pre-activation by pep-4A or pep4AK was not necessary. Pyroglutamic acid-Arg-Thr-Lys-Arg-7-amino-4-methylcoumarin was from Peptides International (Louisville, KY). West Nile virus NS2B-NS3 proteinase (strain NY99) was expressed, purified and refolded to restore its functional activity as described earlier. The pET15b-Den2-CF40-Gly-NS3pro 185 plasmid encoding the Dengue virus type 2 NS2B-NS3 protease was a kind gift of Dr. Subhash Vasudevan (Program in Emerging Infectious Diseases, DUKE-NUS Graduate Medical School, Singapore). DV NS2B-NS3 proteinase was expressed purified and refolded to restore its functional activity as described previously, [70]. The expression of the soluble C-terminally truncated human furin construct in Sf9 insect cells (an ovarian cell line from fall armyworm Spodoptera frugiperda; Invitrogen, Carlsbad, CA) infected with the recombinant baculovirus and purification of soluble furin from the medium were described earlier. Original human hepatocarcinoma Huh7 cells were obtained from ATCC (Manassas, VA).
# (§2) The NS3/4A activity assay was performed at 37°C in triplicate in wells of a 96-well plate in 0.2 ml 50 mM HEPES, pH 7.5, containing 100 mM NaCl, 10 mM DTT, 20% glycerol, the Ac-DE-D(Edans)-EE-Abu-ψ-[COO]-AS-K(Dabsyl)-NH2 substrate (10 µM) and the NS3/4A enzyme (10 nM). Reaction velocity was monitored continuously at λex = 355 nm and λem = 500 nm for 10 min using a Spectramax Gemini EM fluorescence spectrophotometer (Molecular Devices, Sunnyvale, CA) and the initial rate of reaction v was recorded for each reaction. There was no significant additional absorption by compounds 1–8 we identified, which might interfere with NS3/4A assay. Compound stock solutions (10 mM) were made in 100% DMSO. Stocks were then diluted using the assay buffer. As a result, the final DMSO concentration was always below 1% in the assay reactions.
# (§3) To measure the inhibitory potency of the compounds, their increasing concentrations were pre-incubated with the individual proteinases in the corresponding buffer for 30 min at ambient temperature. At least, 7–9 different concentrations were used for each inhibitor. The residual activity of the enzymes was then measured as above. The IC50 values of the inhibitory compounds were calculated by determining the concentrations of the compounds needed to inhibit 50% of the enzyme activity against the peptide substrate. GraphPad Prism was used as fitting software.
row,SMILES,IC50 [nM]
1,Clc1ccc(Nc2nc(SCc3ccccc3)nc3n[nH]c(Cc4nc5ccccc5s4)c23)cc1 [Compound 5],380
2,Cc1n[nH]c(=S)n1Nc1nc(SCc2ccccc2)nc2n[nH]c(Cc3nn[nH]n3)c12 [Compound 3],360
3,Clc1ccc(OCc2nn3c(CCc4nnc5sc(COc6ccc(Cl)cc6)nn45)nnc3s2)cc1 [Compound 2],300
4,S=c1[nH]nc(Nc2nc(SCc3ccccc3)nc3n[nH]c(Cc4nn[nH]n4)c23)s1 [Compound 6],950
5,O=C(Nc1ccccc1)c1cc(S(=O)(=O)Nc2nc3ncccc3[nH]2)c(SSc2cc(Cl)c(C(=O)Nc3ccccc3)cc2S(=O)(=O)Nc2nc3ncccc3[nH]2)cc1Cl [Compound 1],183

# Test system: NS3/4A V36M
# Experiment: not given
# Format: biochemical, HCV genotype 1b, strain HC-J4
# Details: fold change in IC50 for the mutant compared to WT
# Text: as §1, with “NS3/4A was in active form and the pre-activation by pep-4A or pep4AK was not necessary.” left out
# as §2, with “There was no significant additional absorption by compounds 1–8 we identified, which might interfere with NS3/4A assay.” left out
# as §3
row,SMILES,NS3/4A V36M FC
1,Oc1ccccc1-c1nnc2sc3c(Cl)c4nn5c(-c6ccccc6O)nnc5sc4c(Cl)c3nn12 [Compound 4],0.9
2,Clc1ccc(Nc2nc(SCc3ccccc3)nc3n[nH]c(Cc4nc5ccccc5s4)c23)cc1 [Compound 5],2.8
3,COc1cc(C2C(C(=O)Nc3ccc(Cl)c(Cl)c3)=C(C)NC(C)=C2C(=O)Nc2ccc(Cl)c(Cl)c2)ccc1O [Compound 8],0.96
4,Cc1n[nH]c(=S)n1Nc1nc(SCc2ccccc2)nc2n[nH]c(Cc3nn[nH]n3)c12 [Compound 3],4.6
5,Clc1ccc(OCc2nn3c(CCc4nnc5sc(COc6ccc(Cl)cc6)nn45)nnc3s2)cc1 [Compound 2],5.1
6,S=c1[nH]nc(Nc2nc(SCc3ccccc3)nc3n[nH]c(Cc4nn[nH]n4)c23)s1 [Compound 6],1.04
7,S=c1[nH]n2c(COc3cc(Cl)c(OCc4nnc5sc(=S)[nH]n45)cc3Cl)nnc2s1 [Compound 7],1.1
8,O=C(Nc1ccccc1)c1cc(S(=O)(=O)Nc2nc3ncccc3[nH]2)c(SSc2cc(Cl)c(C(=O)Nc3ccccc3)cc2S(=O)(=O)Nc2nc3ncccc3[nH]2)cc1Cl [Compound 1],1.4

# Test system: NS3/4A D168A
# Experiment: not given
# Format: biochemical, HCV genotype 1b, strain HC-J4
# Details: fold change in IC50 for the mutant compared to WT
# Text: as §1, with “NS3/4A was in active form and the pre-activation by pep-4A or pep4AK was not necessary.” left out
# as §2, with “There was no significant additional absorption by compounds 1–8 we identified, which might interfere with NS3/4A assay.” left out
# as §3
row,SMILES,NS3/4A D168A FC
1,Oc1ccccc1-c1nnc2sc3c(Cl)c4nn5c(-c6ccccc6O)nnc5sc4c(Cl)c3nn12 [Compound 4],9.3
2,Clc1ccc(Nc2nc(SCc3ccccc3)nc3n[nH]c(Cc4nc5ccccc5s4)c23)cc1 [Compound 5],33.4
3,COc1cc(C2C(C(=O)Nc3ccc(Cl)c(Cl)c3)=C(C)NC(C)=C2C(=O)Nc2ccc(Cl)c(Cl)c2)ccc1O [Compound 8],1.6
4,Cc1n[nH]c(=S)n1Nc1nc(SCc2ccccc2)nc2n[nH]c(Cc3nn[nH]n3)c12 [Compound 3],23.3
5,Clc1ccc(OCc2nn3c(CCc4nnc5sc(COc6ccc(Cl)cc6)nn45)nnc3s2)cc1 [Compound 2],14.8
6,S=c1[nH]nc(Nc2nc(SCc3ccccc3)nc3n[nH]c(Cc4nn[nH]n4)c23)s1 [Compound 6],1.3
7,S=c1[nH]n2c(COc3cc(Cl)c(OCc4nnc5sc(=S)[nH]n45)cc3Cl)nnc2s1 [Compound 7],1
8,O=C(Nc1ccccc1)c1cc(S(=O)(=O)Nc2nc3ncccc3[nH]2)c(SSc2cc(Cl)c(C(=O)Nc3ccccc3)cc2S(=O)(=O)Nc2nc3ncccc3[nH]2)cc1Cl [Compound 1],1.4

# Molecular target: T2, NS3/4A A156T (Hepatitis C virus genotype 1b, UniProt O92972, A1182T)
# T2 construct: The NS3/4A construct represented the individual NS3 proteinase domain N-terminally fused with an NS4A co-factor; 6xHis; purchased AnaSpec (Fremont, CA)
# Experiment: not given
# Format: biochemical, HCV genotype 1b, strain HC-J4
# Details: in contrast with boceprevir and telaprevir
# Text: as §1, with “NS3/4A was in active form and the pre-activation by pep-4A or pep4AK was not necessary.” left out
# as §2, with “There was no significant additional absorption by compounds 1–8 we identified, which might interfere with NS3/4A assay.” left out
# as §3
row,SMILES,effect of A156T resistance mutation on efficacy
1,S=c1[nH]nc(Nc2nc(SCc3ccccc3)nc3n[nH]c(Cc4nn[nH]n4)c23)s1 [Compound 6],not affected
2,S=c1[nH]n2c(COc3cc(Cl)c(OCc4nnc5sc(=S)[nH]n45)cc3Cl)nnc2s1 [Compound 7],not affected

# Same assay, conditions: recombinant A156T mutant, FRET peptide substrate
row,SMILES,IC50 [nM]
1,Oc1ccccc1-c1nnc2sc3c(Cl)c4nn5c(-c6ccccc6O)nnc5sc4c(Cl)c3nn12 [Compound 4],6540
2,Clc1ccc(Nc2nc(SCc3ccccc3)nc3n[nH]c(Cc4nc5ccccc5s4)c23)cc1 [Compound 5],18600
3,COc1cc(C2C(C(=O)Nc3ccc(Cl)c(Cl)c3)=C(C)NC(C)=C2C(=O)Nc2ccc(Cl)c(Cl)c2)ccc1O [Compound 8],17700
4,Cc1n[nH]c(=S)n1Nc1nc(SCc2ccccc2)nc2n[nH]c(Cc3nn[nH]n3)c12 [Compound 3],16200
5,Clc1ccc(OCc2nn3c(CCc4nnc5sc(COc6ccc(Cl)cc6)nn45)nnc3s2)cc1 [Compound 2],17300
6,S=c1[nH]nc(Nc2nc(SCc3ccccc3)nc3n[nH]c(Cc4nn[nH]n4)c23)s1 [Compound 6],3080
7,S=c1[nH]n2c(COc3cc(Cl)c(OCc4nnc5sc(=S)[nH]n45)cc3Cl)nnc2s1 [Compound 7],1120
8,O=C(Nc1ccccc1)c1cc(S(=O)(=O)Nc2nc3ncccc3[nH]2)c(SSc2cc(Cl)c(C(=O)Nc3ccccc3)cc2S(=O)(=O)Nc2nc3ncccc3[nH]2)cc1Cl [Compound 1],720

# Molecular target: T3, NS3/4A V36M (Hepatitis C virus genotype 1b, UniProt O92972, V1062M)
# T3 construct: The NS3/4A construct represented the individual NS3 proteinase domain N-terminally fused with an NS4A co-factor; 6xHis; purchased AnaSpec (Fremont, CA)
# Experiment: not given
# Format: biochemical, HCV genotype 1b, strain HC-J4
# Details: recombinant V36M mutant, FRET peptide substrate
# Text: as §1, with “NS3/4A was in active form and the pre-activation by pep-4A or pep4AK was not necessary.” left out
# as §2, with “There was no significant additional absorption by compounds 1–8 we identified, which might interfere with NS3/4A assay.” left out
# as §3
row,SMILES,IC50 [nM]
1,Oc1ccccc1-c1nnc2sc3c(Cl)c4nn5c(-c6ccccc6O)nnc5sc4c(Cl)c3nn12 [Compound 4],340
2,Clc1ccc(Nc2nc(SCc3ccccc3)nc3n[nH]c(Cc4nc5ccccc5s4)c23)cc1 [Compound 5],1070
3,COc1cc(C2C(C(=O)Nc3ccc(Cl)c(Cl)c3)=C(C)NC(C)=C2C(=O)Nc2ccc(Cl)c(Cl)c2)ccc1O [Compound 8],1840
4,Cc1n[nH]c(=S)n1Nc1nc(SCc2ccccc2)nc2n[nH]c(Cc3nn[nH]n3)c12 [Compound 3],1670
5,Clc1ccc(OCc2nn3c(CCc4nnc5sc(COc6ccc(Cl)cc6)nn45)nnc3s2)cc1 [Compound 2],1530
6,S=c1[nH]nc(Nc2nc(SCc3ccccc3)nc3n[nH]c(Cc4nn[nH]n4)c23)s1 [Compound 6],990
7,S=c1[nH]n2c(COc3cc(Cl)c(OCc4nnc5sc(=S)[nH]n45)cc3Cl)nnc2s1 [Compound 7],1400
8,O=C(Nc1ccccc1)c1cc(S(=O)(=O)Nc2nc3ncccc3[nH]2)c(SSc2cc(Cl)c(C(=O)Nc3ccccc3)cc2S(=O)(=O)Nc2nc3ncccc3[nH]2)cc1Cl [Compound 1],260
